Source: ChEMBL document CHEMBL3745645, “Synthesis, in vitro antitumor activity, dihydrofolate reductase inhibition, DNA intercalation and structure-activity relationship studies of 1,3,5-triazine analogues” (Bioorg Med Chem Lett, 2016)
Active and inactive are the calls of the source. No cut-off for these calls is given here.

Assays:
[1] = Cytotoxicity against human IGROV1 cells at 10 uM after 48 hrs by SRB assay; format: functional; details: IGROV-1, 48 h, read-out: GI
[2] = system: M14; assay: Cytotoxicity against human M14 cells at 10 uM after 48 hrs by SRB assay; format: functional
[3] = system: ACHN; assay: Cytotoxicity against human ACHN cells at 10 uM after 48 hrs by SRB assay; format: functional; details: read-out: GI
[4] = system: MDA-MB-231; assay: Cytotoxicity against human MDA-MB-231 cells at 10 uM after 48 hrs by SRB assay; format: functional
[5] = system: MCF7; assay: Cytotoxicity against human MCF7 cells after 48 hrs by SRB assay; format: functional; details: MCF7, 48 h, pooled result: one value given for 6 cell lines, strains, targets or settings
[6] = Cytotoxicity against human PC3 cells after 48 hrs by SRB assay; format: functional; details: PC-3, 48 h; for GI50 / TGI: pooled result: one value given for 2 cell lines, strains, targets or settings
[7] = system: A498; assay: Cytotoxicity against human A498 cells at 10 uM after 48 hrs by SRB assay; format: functional; details: A498, 48 h, read-out: GI
[8] = Cytotoxicity against human RPMI8226 cells after 48 hrs by SRB assay; format: functional; details: RPMI-8226, 48 h, read-out: LC50 (the source's name)
[9] = Cytotoxicity against human HOP92 cells at 10 uM after 48 hrs by SRB assay; format: functional; details: HOP-92, 48 h, read-out: GI
[10] = system: A549; assay: Cytotoxicity against human A549 cells after 48 hrs by SRB assay; format: functional; details: A549, 48 h, pooled result: one value given for 8 cell lines, strains, targets or settings
[11] = system: KM12; assay: Cytotoxicity against human KM12 cells at 10 uM after 48 hrs by SRB assay; format: functional; details: KM12, 48 h, read-out: GI
[12] = Cytotoxicity against human MOLT4 cells at 10 uM after 48 hrs by SRB assay; format: functional; details: MOLT-4, 48 h, read-out: GI
[13] = system: SR; assay: Cytotoxicity against human SR cells after 48 hrs by SRB assay; format: functional
[14] = Cytotoxicity against human SF268 cells after 48 hrs by SRB assay; format: functional; details: SF-268, 48 h, pooled result: one value given for 6 cell lines, strains, targets or settings
[15] = system: SR; assay: Cytotoxicity against human SR cells at 10 uM after 48 hrs by SRB assay; format: functional
[16] = system: NCI-H522; assay: Cytotoxicity against human NCI-H522 cells at 10 uM after 48 hrs by SRB assay; format: functional
[17] = system: Calf thymus DNA; assay: Binding affinity to calf thymus DNA by fluorescence spectrophotometric analysis; format: nucleic-acid assay; details: Bos taurus
[18] = Cytotoxicity against human Caki1 cells at 10 uM after 48 hrs by SRB assay; format: functional; details: CAKI-1, 48 h, read-out: GI
[19] = system: SN12C; assay: Cytotoxicity against human SN12C cells at 10 uM after 48 hrs by SRB assay; format: functional; details: read-out: GI
[20] = Cytotoxicity against human DU145 cells at 10 uM after 48 hrs by SRB assay; format: functional; details: DU-145, 48 h, read-out: GI
[21] = Cytotoxicity against human LOXIMVI cells after 48 hrs by SRB assay; format: functional; details: LOX IMVI, pooled result: one value given for 9 cell lines, strains, targets or settings
[22] = system: NCI-H226; assay: Cytotoxicity against human NCI-H226 cells at 10 uM after 48 hrs by SRB assay; format: functional; details: NCI-H226, 48 h, read-out: GI
[23] = Cytotoxicity against human HOP62 cells at 10 uM after 48 hrs by SRB assay; format: functional; details: HOP-62, 48 h, read-out: GI
[24] = Cytotoxicity against human SNB19 cells at 10 uM after 48 hrs by SRB assay; format: functional; details: SNB-19, 48 h, read-out: GI
[25] = system: SK-MEL-28; assay: Cytotoxicity against human SK-MEL-28 cells at 10 uM after 48 hrs by SRB assay; format: functional
[26] = Cytotoxicity against human IGROV1 cells after 48 hrs by SRB assay; format: functional; details: IGROV-1, 48 h, pooled result: one value given for 7 cell lines, strains, targets or settings
[27] = Cytotoxicity against human SW620 cells at 10 uM after 48 hrs by SRB assay; format: functional; details: SW-620, 48 h, read-out: GI
[28] = system: T47D; assay: Cytotoxicity against human T47D cells at 10 uM after 48 hrs by SRB assay; format: functional
[29] = Cytotoxicity against human OVCAR5 cells at 10 uM after 48 hrs by SRB assay; format: functional; details: OVCAR-5, 48 h, read-out: GI
[30] = system: CCRF-CEM; assay: Cytotoxicity against human CCRF-CEM cells after 48 hrs by SRB assay; format: functional; details: for GI50 / TGI: pooled result: one value given for 6 cell lines, strains, targets or settings
[31] = system: MCF7; assay: Cytotoxicity against human MCF7 cells at 10 uM after 48 hrs by SRB assay; format: functional; details: MCF7, 48 h, read-out: GI
[32] = system: A549; assay: Cytotoxicity against human A549 cells at 10 uM after 48 hrs by SRB assay; format: functional; details: A549, 48 h, read-out: GI
[33] = system: Calf thymus DNA; assay: Binding affinity to calf thymus DNA by UV-vis spectrometric analysis; format: nucleic-acid assay; details: Bos taurus
[34] = system: Malme-3M; assay: Cytotoxicity against human MALME-3M cells at 10 uM after 48 hrs by SRB assay; format: functional
[35] = Cytotoxicity against human HL-60(TB) cells after 48 hrs by SRB assay; format: functional; details: HL-60, 48 h, read-out: LC50 (the source's name)
[36] = Cytotoxicity against human MOLT4 cells after 48 hrs by SRB assay; format: functional; details: MOLT-4, 48 h, read-out: LC50 (the source's name)
[37] = system: SK-MEL-5; assay: Cytotoxicity against human SK-MEL-5 cells at 10 uM after 48 hrs by SRB assay; format: functional; details: SK-MEL-5, 48 h, read-out: GI
[38] = Cytotoxicity against human COLO205 cells at 10 uM after 48 hrs by SRB assay; format: functional; details: COLO 205, 48 h, read-out: GI
[39] = system: U-251; assay: Cytotoxicity against human U251 cells at 10 uM after 48 hrs by SRB assay; format: functional; details: U-251, 48 h, read-out: GI
[40] = Cytotoxicity against human SNB75 cells at 10 uM after 48 hrs by SRB assay; format: functional; details: SNB-75, 48 h, read-out: GI
[41] = Cytotoxicity against human UO31 cells at 10 uM after 48 hrs by SRB assay; format: functional; details: UO-31, 48 h, read-out: GI
[42] = Cytotoxicity against human SF539 cells at 10 uM after 48 hrs by SRB assay; format: functional; details: SF-539, 48 h, read-out: GI
[43] = Cytotoxicity against human LOXIMVI cells at 10 uM after 48 hrs by SRB assay; format: functional; details: LOX IMVI, read-out: GI

For `Cc1nc2cc(Nc3nc(Nc4ccc(F)cc4)nc(N4CCN(C)CC4)n3)ccc2n1Cc1ccccc1`, the inhibition of growth at 10 µM [1] was 75.4%, the “growth inhibition (GI)” value [2] was “Active” and the inhibition of growth at 10 µM [3] was 90.3%. The “growth inhibition (GI)” value [4] was “Active”, the GI50 [5] was 1610 nM and the LC50 (concentration killing 50% of cells) [5] was 7.54 µM. It also gave a TGI [5] of 3.6 µM, an LC50 [6] of 20.5 µM and a GI50 [6] of 1.89 µM. The TGI [6] was 4.38 µM, the inhibition of growth at 10 µM [7] was 70.8% and the CC50 [8] was 8.47 µM. It also gave an inhibition of growth at 10 µM [9] of 97.5%, a GI50 [10] of 1.84 µM and an LC50 [10] of 7.52 µM. The TGI [10] was 3.86 µM, the inhibition of growth at 10 µM [11] was 83% and the inhibition of growth at 10 µM [12] was 98.9%. For the same compound, the LC50 (concentration killing 50% of cells) [13] was 8.47 µM, the GI50 [14] was 1.77 µM and the LC50 (concentration killing 50% of cells) [14] was 10.8 µM. The TGI [14] was 3.94 µM, the “growth inhibition (GI)” value [15] was “Active” and the “growth inhibition (GI)” value [16] was “Active”. For the same compound, the Ka [17] was 3.36 ×10⁴ /M, the inhibition of growth at 10 µM [18] was 81.4% and the inhibition of growth at 10 µM [19] was 65.1%. It also gave an inhibition of growth at 10 µM [20] of 83.3%, a GI50 [21] of 1.81 µM and an LC50 [21] of 6.27 µM. For the same compound, the TGI [21] was 3.37 µM, the inhibition of growth at 10 µM [22] was 35% and the inhibition of growth at 10 µM [23] was 41.8%. For the same compound, the inhibition of growth at 10 µM [24] was 55.8%, the “growth inhibition (GI)” value [25] was “Active” and the GI50 [26] was 2.16 µM. The LC50 (concentration killing 50% of cells) [26] was 15.5 µM, the TGI [26] was 5.25 µM and the inhibition of growth at 10 µM [27] was 84.4%. The “growth inhibition (GI)” value [28] was “Active”, the inhibition of growth at 10 µM [29] was 57.1% and the LC50 [30] was 8.47 µM. It also gave a GI50 [30] of 1430 nM, a TGI [30] of 4.04 µM and an inhibition of growth at 10 µM [31] of 82.1%. The inhibition of growth at 10 µM [32] was 92.8%, the Ka [33] was 2.92 ×10⁴ /M and the “growth inhibition (GI)” value [34] was “Active”. For the same compound, the CC50 [35] was 8.47 µM, the CC50 [36] was 8.47 µM and the inhibition of growth at 10 µM [37] was 29.1%.

Work on `COc1ccc(-c2nc(Nc3ccc(F)cc3)nc(Nc3ccc4c(c3)nc(C)n4Cc3ccccc3)n2)cc1` yielded an inhibition of growth at 10 µM [1] of 63.6%, an inhibition of growth at 10 µM ([2]; M14, 48 h, read-out: GI) of 61.1% and an inhibition of growth at 10 µM [3] of 62.9%. The inhibition of growth at 10 µM ([4]; MDA-MB-231, 48 h, read-out: GI) was 68.8%, the inhibition of growth at 10 µM [38] was 71.8% and the GI50 [5] was 3600 nM. The LC50 (concentration killing 50% of cells) [5] was > 100 µM, the TGI [5] was 23.4 µM and the LC50 [6] was > 100 µM. For the same compound, the GI50 [6] was 5.35 µM, the TGI [6] was > 100 µM and the inhibition of growth at 10 µM [7] was 27.3%. The CC50 [8] was > 100 µM, the inhibition of growth at 10 µM [39] was 60.8% and the inhibition of growth at 10 µM [9] was 60.3%. For the same compound, the GI50 [10] was 5.14 µM, the LC50 [10] was > 100 µM and the TGI [10] was 20.9 µM. For the same compound, the inhibition of growth at 10 µM [11] was 74%, the LC50 (concentration killing 50% of cells) [13] was > 100 µM and the GI50 [14] was 4.98 µM. For the same compound, the LC50 (concentration killing 50% of cells) [14] was > 100 µM, the TGI [14] was > 100 µM and the inhibition of growth at 10 µM [40] was 32%. The “growth inhibition (GI)” value [15] was “Active”, the inhibition of growth at 10 µM ([16]; NCI-H522, 48 h, read-out: GI) was 44.6% and the Ka [17] was 1.5 ×10⁴ /M. For the same compound, the inhibition of growth at 10 µM [18] was 16.8%, the inhibition of growth at 10 µM [19] was 51.6% and the inhibition of growth at 10 µM [20] was 45.3%. The GI50 [21] was 4.43 µM, the LC50 [21] was > 100 µM and the TGI [21] was 31.2 µM. The inhibition of growth at 10 µM [41] was 70.7%, the inhibition of growth at 10 µM [22] was 33.4% and the inhibition of growth at 10 µM [23] was 46.7%. For the same compound, the inhibition of growth at 10 µM [24] was 39.3%, the inhibition of growth at 10 µM ([25]; SK-MEL-28, 48 h, read-out: GI) was 43.5% and the inhibition of growth at 10 µM [42] was 32.2%. For the same compound, the GI50 [26] was 4.79 µM, the LC50 (concentration killing 50% of cells) [26] was > 100 µM and the TGI [26] was 40.5 µM. The inhibition of growth at 10 µM [27] was 54.3%, the inhibition of growth at 10 µM ([28]; read-out: GI) was 88.5% and the inhibition of growth at 10 µM [29] was 11.9%. For the same compound, the inhibition of growth at 10 µM [43] was 61.1%, the LC50 [30] was > 100 µM and the GI50 [30] was 3370 nM. It also gave a TGI [30] of 67.9 µM, an inhibition of growth at 10 µM [31] of 77.4% and an inhibition of growth at 10 µM [32] of 68%. For the same compound, the Ka [33] was 2.96 ×10⁴ /M, the inhibition of growth at 10 µM ([34]; read-out: GI) was 47.2% and the CC50 [35] was > 100 µM. The CC50 [36] was > 100 µM and the inhibition of growth at 10 µM [37] was 52.9%.
